Test results reported in patent US12172959B2, “Mono- or di-substituted indole derivatives as dengue viral replication inhibitors” (priority 2015, dated 2024).

Assays:
[1] = system: DENV-2 strain NGC; assay: Tetravalent RT-qPCR assay Protocol B, serotype 2; assay type: cell-based; conditions: Dengue virus, DENV2, 96 h, RT-qPCR serotype 2 NGC-Tongalike, 4 days
Description: (§1) The antiviral activity of the compounds of the invention was tested against DENV-1 strain Djibouti strain (D1/H/IMTSSA/98/606; Table 6), DENV-2 strain NGC (Table 7), DENV-3 strain H87 (Table 8) and DENV-4 strain SG/06K2270DK1/2005 (Table 9B) in a RT-qPCR assay. Vero-B or Vero-M cells (5×10^4) were seeded in 96-well plates. One day later, culture medium was replaced with 100 μL assay medium containing a 2×, 3× or 5× serial dilution of the compound (concentration range: 50 μg/mL-0.00038 μg/mL, 50 μg/mL-0.0076 μg/mL, and 50 μg/mL-0.00013 μg/mL, respectively) and 100 μL of dengue virus inoculum (DENV). Following a 2 hour incubation period, the cell monolayer was washed 3 times with assay medium to remove residual, non-adsorbed virus and cultures were further incubated for either 4 days (DENV-2 NGC) or 7 days (DENV-1 Djibouti strain D1/H/IMTSSA/98/606, DENV-3 strain H87 prototype, DENV-4 strain H241, and DENV-4 strain EDEN) in the presence of the inhibitor. Supernatant was harvested and viral RNA load was determined by real-time quantitative RT-PCR. The 50% effective concentration (EC50), which is defined as the compound concentration that is required to inhibit viral RNA replication by 50%, was determined using logarithmic interpolation.
(§2) RNA was isolated from 100 μL (or in some circumstances 150 μL) supernatant with the NucleoSpin 96 Virus kit (Filter Service, Duren, Germany) as described by the manufacturer. The sequences of the TaqMan primers (DENV-For, DENV-Rev; Table 5) and TaqMan probes (DENV-Probe Table 5) were selected from non-structural gene 3 (NS3) or NS5, of the respective flaviviruses using Primer Express software (version 2.0; Applied Biosystems, Lennik, Belgium). The TaqMan probe was fluorescently labelled with 6-carboxyfluorescein (FAM) at the 5′ end as the reporter dye, and with minor groove binder (MGB) at the 3′ end as the quencher (Table 5). One-step, quantitative RT-PCR was performed in a total volume of 25 μL, containing 13.9375 μL H2O, 6.25 μL master mix (Eurogentec, Seraing, Belgium), 0.375 μL forward primer, 0.375 μL reverse primer, 1 μL probe, 0.0625 μL reverse transcriptase (Eurogentec) and 3 μL sample. RT-PCR was performed using the ABI 7500 Fast Real-Time PCR System (Applied Biosystems, Branchburg, New Jersey, USA) using the following conditions: 30 min at 48° C. and 10 min at 95° C., followed by 40 cycles of 15 s at 95° C. and 1 min at 60° C. The data was analyzed using the ABI PRISM 7500 SDS software (version 1.3.1; Applied Biosystems). For absolute quantification, standard curves were generated using 10-fold dilutions of template preparations of known concentrations.

[2] = system: Vero cells; conditions: African green monkey
[3] = system: DENV-3 strain H87; assay: Tetravalent RT-qPCR assay Protocol B, serotype 3; assay type: cell-based; conditions: Dengue virus, DENV3, 168 h, RT-qPCR serotype 3 H87, 7 days
Description: as §1, §2

[4] = in vitro; assay type: cell-based; conditions: African green monkey, CC50
Description: (§3) Potential cytotoxic effects of the compounds were evaluated in uninfected quiescent Vero-B or Vero-M cells. Cells were seeded at 5×10^4 cells/well in a 96-well plate in the presence of two-, three- or five-fold serial dilutions (ranging from 50 μg/mL-0.0038 μg/mL, 50 μg/mL-0.0076 μg/mL, and 50 μg/mL-0.00013 μg/mL, respectively) of compound and incubated for 4 to 7 days. Culture medium was discarded and 100 μL 3-(4,5-dimethylthiazol-2-yl)-5-(3-carboxy-methoxyphenyl)-2-(4-sulfophenyl)-2H-tetrazolium/phenazinemethosulfate (MTS/PMS; Promega, Leiden, The Netherlands) in PBS was added to each well. Following a 2-hour incubation period at 37° C., the optical density was determined at 498 nm. Cytotoxic activity was calculated using the following formula: % cell viability=100×(ODCompound/ODCC), where ODCompound and ODCC correspond to the optical density at 498 nm of the uninfected cell cultures treated with compound and that of uninfected, untreated cell cultures, respectively. The 50% cytotoxic concentration (i.e., the concentration that reduces the total cell number with 50%; CC50) was calculated using linear interpolation.

[5] = system: uninfected quiescent Vero-B or Vero-M cells; assay: in vitro; assay type: cell-based; conditions: African green monkey
Description: as §3

SMILES	EC50 [1]	CC50 [2]	EC50 [3]	CC50 [4]	CC50 [5]
COc1cc(NC(C(=O)c2c[nH]c3c(C)c(OC)ccc23)c2ccc(Cl)cc2OC)cc(S(C)(=O)=O)c1 (single isomer, unassigned) [Compound 6A, 2-(4-chloro-2-methoxyphenyl)-2-((3-methoxy-5-(methyl-sulfonyl)phenyl)amino)-1-(6-methoxy-7-methyl-1H-indol-3-yl)ethanone]	< 0.00024 µM	> 25 µM	< 0.014 µM	> 92 µM	> 92 µM
COc1cc(NC(C(=O)c2c[nH]c3c(C)c(F)ccc23)c2ccc(Cl)cc2OC)cc(S(C)(=O)=O)c1 (single isomer, unassigned) [Compound 2A, 2-(4-chloro-2-methoxyphenyl)-1-(6-fluoro-7-methyl-1H-indol-3-yl)-2-((3-methoxy-5-(methylsulfonyl)phenyl)amino)ethanone]	< 0.00024 µM	4.8 µM	< 0.014 µM	7.3 µM	11 µM
COc1cc(NC(C(=O)c2c[nH]c3cc(OC)c(C)cc23)c2ccc(Cl)cc2OC)cc(S(C)(=O)=O)c1 (single isomer, unassigned) [Compound 4A, 2-(4-chloro-2-methoxyphenyl)-2-((3-methoxy-5-(methyl-sulfonyl)phenyl)amino)-1-(6-methoxy-5-methyl-1H-indol-3-yl)ethanone]	0.00032 µM	4.2 µM	< 0.014 µM	4.3 µM	6.6 µM
COc1cc(NC(C(=O)c2c[nH]c3cc(F)ccc23)c2ccc(Cl)cc2OC)cc(S(C)(=O)=O)c1 (single isomer, unassigned) [Compound 1A, 2-(4-chloro-2-methoxyphenyl)-1-(6-fluoro-1H-indol-3-yl)-2-((3-methoxy-5-(methylsulfonyl)phenyl)amino)ethanone]	< 0.00027 µM	4.3 µM	< 0.015 µM	8 µM	11 µM
COc1cc(NC(C(=O)c2c[nH]c3cc(OC)c(F)cc23)c2ccc(Cl)cc2OC)cc(S(C)(=O)=O)c1 (single isomer, unassigned) [Compound 5A, 2-(4-chloro-2-methoxyphenyl)-1-(5-fluoro-6-methoxy-1H-indol-3-yl)-2-((3-methoxy-5-(methylsulfonyl)phenyl)amino)ethanone]	< 0.00023 µM	5 µM	0.022 µM	9.2 µM	–
